Patent publication US7276533B2, “Compositions useful for the treatment of pathologies responding to the activation of PPAR-gamma receptor” (Sigma-Tau Industrie Farmaceutiche Riunite S.p.A., priority 2001, dated 2007)

Tests used:
[1] = system: NB4 cells (human promyelocitic leukemia); assay: Differentiation of NB4 cells into granulocytes, NBT dye reduction, spectrophotometric assay at 540 nm; assay type: cell-based; settings: 2-3 days, FIG. 2
Experimental: The pro-differentiative activity of the spirolaxine (ST 1397) and the ATRA, both alone and in association, was assessed in this experimental model.
NB4 cells were grown in 25 cm^2 flasks at a density of approx 100.000 cells/ml in 5 ml of RPMI 1640 culture with 10% fetal calf serum (FCS). After one day, the cells were treated with ATRA at a concentration of 10^−7 M, or with ST 1397 at doses of 0,1, 0,5 and 1 μM, or with equivalent volumes of the two compounds in association. Then, the cells were put into the incubator for 2-3 days, without replacing the culture medium.
At the end of the second or third day of treatment, the differentiation of the cells into granulocytes was measured by the NBT dye reduction and the spectrophotomectric assay of the samples.
The retinoic acid was dissolved in the culture medium with a solution of DMSO 1 mM. Control cultures were treated with equivalent volumes of DMSO, since this compound (DMSO) can be differentiating in certain experimental conditions.
To measure the differentiative effect, 500.000 cells have been gathered from each sample, centrifuged and re-suspended in 1 ml of RPMI 1640 culture with 10% serum, 1 mg/ml of nitroblue tetrazolium (NBT) and 100 ng of PMA. The re-suspended cells were incubated at 37° C. for 20-60 min. […]
The samples were sonicated to complete lysis and then read with a spectrophotometer at a wave length of 540 nm.

PPARγ receptor = target: T1, PPARγ receptor (Homo sapiens, UniProt P37231); assay: Activation of PPARγ: cellular transfection with PPAR-γ plasmid and TK-PPAR-Reluc luciferase reporter vector; settings: NIH-3T3 murine fibroblasts, 24 hour-treatment, spirolaxine 40 nM, FIG. 1
T1 sequence (P37231 1-505): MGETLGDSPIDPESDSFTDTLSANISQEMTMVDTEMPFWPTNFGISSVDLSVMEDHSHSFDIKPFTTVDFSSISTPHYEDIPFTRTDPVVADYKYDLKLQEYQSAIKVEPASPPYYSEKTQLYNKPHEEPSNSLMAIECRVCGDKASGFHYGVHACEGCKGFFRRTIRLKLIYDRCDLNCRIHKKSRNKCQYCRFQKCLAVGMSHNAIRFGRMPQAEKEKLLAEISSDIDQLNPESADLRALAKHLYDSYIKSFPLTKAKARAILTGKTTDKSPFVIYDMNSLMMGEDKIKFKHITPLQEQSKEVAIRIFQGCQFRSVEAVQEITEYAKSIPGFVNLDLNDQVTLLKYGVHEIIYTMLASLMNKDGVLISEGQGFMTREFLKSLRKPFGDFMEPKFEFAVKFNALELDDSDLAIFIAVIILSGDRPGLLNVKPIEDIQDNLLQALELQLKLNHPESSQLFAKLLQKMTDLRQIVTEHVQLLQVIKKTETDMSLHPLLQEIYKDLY
Experimental: The activation of the expression of the luciferase was put into evidence by transfecting the NIH-3T3 murine fibroblasts with the PPAR-γ plasmid and the TK-PPAR-Reluc reporter vector; the luciferase activity was measured after 24 hour-treatment with the spirolaxine at a concentration of 40 nM.

luciferase activity mediated by the TK-PPAR-Reluc reporter vector (index of activation of the receptor) versus control (PPARγ receptor) | Compound | differentiation in NB4 cells (NBT reduction) ([1]; ATRA alone at 10^−7 M) | differentiation in NB4 cells (NBT reduction) ([1]; ST 1397 alone at 0,1, 0,5 and 1 μM)
 | CC1=C(/C=C/C(C)=C/C=C/C(C)=C/C(=O)O)C(C)(C)CCC1 [ATRA, all-trans retinoic acid, reference compound] | differentiative effect was already well known | 
seven times higher than the control | COc1cc(O)cc2c1C(=O)OC2CCCCCC1CCCC2(CCC(C)O2)O1 (stereo not drawn) [spirolaxine] |  | does not induce differentiation
